Reference: patent publication US20220411439A1, “POLYMORPHS OF A MACROCYCLIC KINASE INHIBITOR” (TURNING POINT THERAPEUTICS, INC., priority 2019, published 2022)
Like-named read-outs stand apart in the source and are kept apart here.

Target: T1, Ba/F3 KIF5B-RET (Homo sapiens, UniProt P07949, cells depend on it, form not given)
T1 construct: IC50 (nM); other: Experiment 1; other: Experiment 2; fused on or other part: P33176 (Kinesin-1 heavy chain)
Assay: Compound I anti-cell proliferation comparison (FIG. 5A, 5B)
Format: cell-based
Details: for GI50: read-out: IC50 (the source's name)
From the text: The KIF5B-RET gene was synthesized at GenScript and cloned into pCDH-CMV-MCS-EF1-Puro plasmid (System Biosciences, Inc). KIF5B-RET point mutation V804M and G810C were generated at GenScript by PCR and confirmed by sequencing. Ba/F3-KIF5B-RET wild type and mutant were generated by transducing Ba/F3 cells with lentivirus containing KIF5B-RET wide type or mutant. Stable cell lines were selected by puromycin treatment, followed by IL-3 withdrawal. Briefly, 5×10^6 Ba/F3 cells were transduced with lentivirus supernatant in the presence of 8 μg/mL protamine sulfate. The transduced cells were subsequently selected with 1 μg/mL puromycin in the presence of IL3-containing medium RPMI1640, plus 10% FBS. After 10-12 days of selection, the surviving cells were further selected for […] independent growth.
Two thousand cells per well were seeded in 384 well white plate for 24 hrs, and then treated with compounds for 72 hours (37° C., 5% CO2). Cell proliferation was measured using CellTiter-Glo luciferase-based ATP detection assay (Promega) following the manufactures's protocol. IC50 determinations were performed using GraphPad Prism software (GraphPad, Inc., San Diego, Calif.).

T1 sequence (P07949 whole entry G810C, form open, the tested form may be a part): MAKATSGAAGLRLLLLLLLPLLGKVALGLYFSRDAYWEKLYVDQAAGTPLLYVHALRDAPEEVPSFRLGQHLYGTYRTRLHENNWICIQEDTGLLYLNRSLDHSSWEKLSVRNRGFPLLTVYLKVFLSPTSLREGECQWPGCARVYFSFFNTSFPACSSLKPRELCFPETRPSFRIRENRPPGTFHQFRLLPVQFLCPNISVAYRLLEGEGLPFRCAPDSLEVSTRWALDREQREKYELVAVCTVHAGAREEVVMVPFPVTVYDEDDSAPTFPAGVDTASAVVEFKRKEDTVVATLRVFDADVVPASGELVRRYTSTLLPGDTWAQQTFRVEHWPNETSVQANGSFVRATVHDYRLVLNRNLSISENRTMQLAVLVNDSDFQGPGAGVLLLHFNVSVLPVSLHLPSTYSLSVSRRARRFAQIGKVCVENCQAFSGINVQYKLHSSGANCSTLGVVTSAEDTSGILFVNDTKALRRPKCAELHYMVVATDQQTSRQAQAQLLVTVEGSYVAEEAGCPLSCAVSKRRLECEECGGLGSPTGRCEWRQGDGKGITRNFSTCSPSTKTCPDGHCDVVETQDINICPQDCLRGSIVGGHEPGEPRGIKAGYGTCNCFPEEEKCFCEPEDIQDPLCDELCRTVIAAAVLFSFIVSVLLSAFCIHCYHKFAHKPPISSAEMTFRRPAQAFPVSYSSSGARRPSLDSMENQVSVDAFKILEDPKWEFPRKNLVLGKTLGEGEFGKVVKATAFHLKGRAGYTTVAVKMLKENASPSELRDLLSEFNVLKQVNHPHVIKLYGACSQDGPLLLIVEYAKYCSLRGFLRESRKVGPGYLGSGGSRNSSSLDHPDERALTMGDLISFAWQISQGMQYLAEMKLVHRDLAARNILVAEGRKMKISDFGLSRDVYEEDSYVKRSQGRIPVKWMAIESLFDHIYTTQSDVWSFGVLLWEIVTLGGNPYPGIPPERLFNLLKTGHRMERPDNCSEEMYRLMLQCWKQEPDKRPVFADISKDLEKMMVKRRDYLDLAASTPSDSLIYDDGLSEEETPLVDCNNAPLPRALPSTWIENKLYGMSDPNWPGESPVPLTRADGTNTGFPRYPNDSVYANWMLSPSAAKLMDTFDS

`CO[C@]1(C(=O)N[C@@H](C)c2ccc(-n3cc(F)cn3)nc2)CC[C@H](c2nc(C)cc(Nc3cc(C)[nH]n3)n2)CC1` [BLU-667] was tested, and the “IC75” value (Experiment 1) was 115.4 nM, the IC90 (Experiment 1) was 720 nM and the GI50 (Experiment 1) was 18.5 nM. For the same compound, the “IC75” value (Experiment 2) was 214.3 nM, the IC90 (Experiment 2) was 1030 nM and the GI50 (Experiment 2) was 44.6 nM.
